{"source": "patent US20200061212A1", "about": "“SOLID ORAL COMPOSITION CONTAINING DYES” (COSMO TECHNOLOGIES LTD., priority 2016, published 2020)", "key": {"[1]": {"test_system": "subjects undergoing screening or surveillance colonoscopy", "assay": "Phase III placebo-controlled trial: Adenoma or Carcinoma detection rate and false positive rate at HD white light colonoscopy", "assay_type": "in vivo, human", "conditions": "for ADR: Difference in Proportions of Methylene Low Dose vs. Placebo: 100 mg; for ADR: Difference in Proportions of Methylene Full Dose vs. Methylene Blue Low Dose: 200 mg vs 100 mg; for False Positive Rate: subjects with excisions and without any histologically proven Adenoma or Carcinoma, %: % of subjects with excision", "source_text": "The detection rate was defined as the proportion of patients with at least one histologically proven Adenoma or Carcinoma.\nIn other words, in the study the standard of care (white light endoscopy) and the chromoendoscopy by oral administration of the MB tablets were compared. In the acquisition and recording of the colonoscopies, the latest and more technologically advanced, high definition (HD) endoscopes were used. Thus, the study allowed the direct comparison of the effect of the MB tablets on the adenoma or carcinoma detection rate to the current gold standard colonoscopy, i.e. the high definition (HD) white light colonoscopy. For this reason, in the context of the present example, the terms “placebo”, “white light high definition endoscopy” (WLHD) and “white light endoscopy” can be used interchangeably, and definitively indicate the current standard of care for the endoscopic examination of the colon. Due to the unavoidable impossibility to obtain double-blinding for the clinical study, since the endoscopist performing the colonoscopy was able to see if the colon was blue colored or unstained, an additional, underpowered, masking group was introduced. […] These patients had the colon stained in blue, but were not taken into account in the calculation of the study parameters. In this way, while performing the colonoscopy, the endoscopist was not aware if a patient belonged to the group of the full dose (whose patients were part of the statistical calculation) or to the “masking” group (whose patients received a lower dose of the composition and were not part of the statistical analysis).\nSubjects aged between 50 and 75 years undergoing full colonoscopy for screening or surveillance of colorectal cancer were recruited.\nDiet: In preparation for the colonoscopy patients adopted a low residue diet for three days prior to the colonoscopy. On the third day of the low residue diet patients must fast for at least 3 hours before starting intake of the bowel prep and study drug.\nBowel cleansing preparation: all subjects received a full dose regimen of 4 liters PEG-based bowel cleansing preparation starting in the late afternoon (after 6 pm) before the colonoscopy day. The subjects drank at least 250 mL of solution every 15 min, so that the intake of the cleansing preparation, and study drug were completed in 4 hours.\nDose regimen: The subjects were randomized 2:2:1 into three groups.\nAll the patients participating to the study, regardless of whether they belonged to Group one, Group two or Group three, received a timetable detailing the volumes of bowel cleansing preparation to be consumed, and the times to be respected:\nThe subjects had to drink about 250 mL of bowel cleansing preparation every 15 minutes, equivalent to 1 liter of bowel cleansing preparation every hour. The timeframe between an oral administration of tablets and the following one had to be 1 hour.\nAdenoma was defined as a histologically proven Vienna Grade 3 to 4.2 or a histologically proven traditional serrated adenoma (TSA), or a histologically proven sessile serrated adenoma (SSA). Histologically proven Carcinoma was defined as Vienna Grade 4.3 to 5b.\nDay of colonoscopy 02: patients returned to the clinic for the colonoscopy. The colonoscopy was performed using high definition (HD) colonoscope. Narrow-Band-Imaging (NBI) and all other electronic chromoendoscopy and contrast enhancement techniques, as well as zoom endoscopy or magnification were not permitted. The endoscopist performed the full colonoscopy and recorded and removed all the detected adenoma and/or carcinoma. The endoscopist recorded the morphology and size and classified the found polyps, adenomas and carcinomas, and recorded the pit pattern according to the Paris and Kudo's classification and following the endoscopy charter."}, "P-gp [2]": {"molecular_target": "T1, P-gp (Homo sapiens, UniProt P08183)", "T1 sequence (P08183 whole entry)": "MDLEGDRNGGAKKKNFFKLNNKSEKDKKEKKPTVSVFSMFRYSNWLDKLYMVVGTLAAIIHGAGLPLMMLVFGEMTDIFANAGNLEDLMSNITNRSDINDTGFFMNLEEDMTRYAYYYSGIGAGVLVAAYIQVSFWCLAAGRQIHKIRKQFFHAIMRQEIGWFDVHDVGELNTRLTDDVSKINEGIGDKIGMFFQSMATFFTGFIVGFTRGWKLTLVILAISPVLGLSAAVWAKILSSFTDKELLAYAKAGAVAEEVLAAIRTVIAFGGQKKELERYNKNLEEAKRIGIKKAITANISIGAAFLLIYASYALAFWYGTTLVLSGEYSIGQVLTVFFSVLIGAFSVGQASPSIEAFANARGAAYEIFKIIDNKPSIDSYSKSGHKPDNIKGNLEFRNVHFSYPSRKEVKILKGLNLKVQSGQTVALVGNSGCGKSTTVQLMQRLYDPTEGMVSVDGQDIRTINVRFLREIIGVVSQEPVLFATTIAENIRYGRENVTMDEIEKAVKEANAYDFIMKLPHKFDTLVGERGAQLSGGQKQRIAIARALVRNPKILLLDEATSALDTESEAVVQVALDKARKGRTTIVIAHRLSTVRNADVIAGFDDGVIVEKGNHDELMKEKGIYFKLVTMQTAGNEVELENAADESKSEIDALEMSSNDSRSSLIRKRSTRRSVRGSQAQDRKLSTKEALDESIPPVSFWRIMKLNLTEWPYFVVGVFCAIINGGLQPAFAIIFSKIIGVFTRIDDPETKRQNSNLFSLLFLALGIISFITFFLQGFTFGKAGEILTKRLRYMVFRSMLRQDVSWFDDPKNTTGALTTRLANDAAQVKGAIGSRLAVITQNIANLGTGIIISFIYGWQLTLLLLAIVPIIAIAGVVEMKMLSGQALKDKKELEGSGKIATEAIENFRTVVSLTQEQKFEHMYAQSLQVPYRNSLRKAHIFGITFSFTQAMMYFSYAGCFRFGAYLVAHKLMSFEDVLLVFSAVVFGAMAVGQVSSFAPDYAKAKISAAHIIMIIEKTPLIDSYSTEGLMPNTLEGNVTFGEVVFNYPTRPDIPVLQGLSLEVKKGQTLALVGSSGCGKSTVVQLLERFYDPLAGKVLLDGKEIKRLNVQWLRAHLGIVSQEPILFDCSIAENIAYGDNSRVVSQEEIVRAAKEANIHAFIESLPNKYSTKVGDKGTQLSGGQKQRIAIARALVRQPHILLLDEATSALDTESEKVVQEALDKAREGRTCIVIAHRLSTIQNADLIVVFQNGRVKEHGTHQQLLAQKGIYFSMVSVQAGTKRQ", "assay": "in vitro transporter substrate study", "assay_type": "in vitro ADME", "conditions": "in vitro studies"}, "P-gp [3]": {"molecular_target": "T1, P-gp", "assay": "in vitro transporter inhibition study", "assay_type": "in vitro ADME", "conditions": "in vitro studies"}, "[4]": {"conditions": "low dose 100 mg, Per Protocol N=225"}, "[5]": {"conditions": "patients with number of excisions 0-1, FAS"}, "[6]": {"conditions": "patients with number of excisions 0-1, PP"}, "[7]": {"conditions": "patients with number of excisions ≤3, FAS"}, "[8]": {"conditions": "patients with number of excisions ≤3, PP"}}, "data": [{"smiles": "CN(C)c1ccc2nc3ccc(=[N+](C)C)cc-3sc2c1", "note": "[Methylene blue, Methylthioninium Chloride (Methylene Blue)]", "values": [{"measurement": "ADR: Difference in Proportions of Methylene Low Dose vs. Placebo", "setting": "[1]; FAS", "result": 3.64}, {"measurement": "ADR: Difference in Proportions of Methylene Low Dose vs. Placebo", "setting": "[1]; Per Protocol", "result": 5.86}, {"measurement": "ADR: Difference in Proportions of Methylene Full Dose vs. Methylene Blue Low Dose", "setting": "[1]; FAS", "result": 4.84}, {"measurement": "ADR: Difference in Proportions of Methylene Full Dose vs. Methylene Blue Low Dose", "setting": "[1]; Per Protocol", "result": 4.46}, {"measurement": "ADR: Difference in Proportions of Methylene Blue Full Dose vs. Placebo", "setting": "[1]; 200 mg, FAS", "result": 8.48}, {"measurement": "Absolute difference in ADR between methylene blue full dose and placebo", "setting": "[1]; 200 mg, FAS", "result": 8.48, "unit": "%"}, {"measurement": "Percent decrease in FPR for methylene full dose vs placebo", "setting": "[1]; 200 mg, FAS", "result": 21.6, "unit": "%"}, {"measurement": "Percent increase in ADR for methylene full dose vs placebo", "setting": "[1]; 200 mg, FAS", "result": 17.7, "unit": "%"}, {"measurement": "Percent decrease in FPR for methylene full dose vs placebo", "setting": "[1]; 200 mg, PP", "result": 24.8, "unit": "%"}, {"measurement": "ADR: Difference in Proportions of Methylene Blue Full Dose vs. Placebo", "setting": "[1]; 200 mg, Per Protocol", "result": 10.32}, {"measurement": "Absolute difference in ADR between methylene blue full dose and placebo", "setting": "[1]; 200 mg, Per Protocol", "result": 10.32, "unit": "%"}, {"measurement": "Percent increase in ADR for methylene blue full dose vs placebo", "setting": "[1]; 200 mg, Per Protocol", "result": 21.5, "unit": "%"}, {"measurement": "Absolute difference in proportion of subjects between methylene blue full dose and placebo, Table 14 (non-polypoid lesions)", "setting": "[1]; FAS", "result": 8.83, "unit": "%"}, {"measurement": "Absolute difference in proportion of subjects with diminutive adenomas between methylene blue full dose and placebo", "setting": "[1]; FAS", "result": 6.21, "unit": "%"}, {"measurement": "Difference in False Positive Rates of Methylene Blue Full Dose vs. Methylene Blue Low Dose", "setting": "[1]; FAS", "result": "−2.88"}, {"measurement": "Difference in False Positive Rates of Methylene Blue Full Dose vs. Placebo", "setting": "[1]; FAS", "result": "−6.44"}, {"measurement": "Difference in False Positive Rates of Methylene Blue Low Dose vs. Placebo", "setting": "[1]; FAS", "result": "−3.56"}, {"measurement": "Percent increase in proportion of subjects for methylene blue full dose vs placebo, Table 14 (non-polypoid lesions)", "setting": "[1]; FAS", "result": 25.2, "unit": "%"}, {"measurement": "Percent increase in proportion of subjects with diminutive adenomas for methylene blue full dose vs placebo", "setting": "[1]; FAS", "result": 20.1, "unit": "%"}, {"measurement": "ADR, %", "setting": "[1]; Number of excisions 0-1, low dose 100 mg, FAS", "result": 20.83, "unit": "%"}, {"measurement": "ADR, %", "setting": "[1]; Number of excisions 4-6, full dose 200 mg, FAS", "result": "(85.06) %"}, {"measurement": "ADR, %", "setting": "[1]; Number of excisions 4-6, low dose 100 mg, FAS", "result": 87.80, "unit": "%"}, {"measurement": "ADR, %", "setting": "[1]; Number of excisions >6, full dose 200 mg, FAS", "result": "(97.22) %"}, {"measurement": "ADR, %", "setting": "[1]; Number of excisions >6, low dose 100 mg, FAS", "result": 100.00, "unit": "%"}, {"measurement": "ADR, %", "setting": "[1]; Number of excisions ≤3, low dose 100 mg, FAS", "result": 38.12, "unit": "%"}, {"measurement": "Difference in False Positive Rates of Methylene Blue Full Dose vs. Methylene Blue Low Dose", "setting": "[1]; Per Protocol", "result": "−3.03"}, {"measurement": "Difference in False Positive Rates of Methylene Blue Full Dose vs. Placebo", "setting": "[1]; Per Protocol", "result": "−7.51"}, {"measurement": "Difference in False Positive Rates of Methylene Blue Low Dose vs. Placebo", "setting": "[1]; Per Protocol", "result": "−4.49"}, {"measurement": "Absolute difference in proportion of subjects with a histologically proven adenoma between methylene blue full dose and placebo", "setting": "[1]; excluding carcinoma, FAS", "result": 9.33, "unit": "%"}, {"measurement": "Percent increase in proportion of subjects with a histologically proven adenoma for methylene blue full dose vs placebo", "setting": "[1]; excluding carcinoma, FAS", "result": 20.3, "unit": "%"}, {"measurement": "Percentage of subjects with a histologically proven adenoma (excluding carcinoma)", "setting": "[1]; full dose 200 mg, FAS N=485", "result": 55.26, "unit": "%"}, {"measurement": "Percentage of subjects with diminutive adenomas", "setting": "[1]; full dose 200 mg, FAS N=485", "result": 37.11, "unit": "%"}, {"measurement": "Percentage of subjects with non-polypoid lesions", "setting": "[1]; full dose 200 mg, FAS N=485", "result": 43.92, "unit": "%"}, {"measurement": "Subjects with excision, %", "setting": "[1]; full dose 200 mg, FAS N=485", "result": "(73.40) %"}, {"measurement": "Total number of subjects with a histologically proven adenoma (excluding carcinoma)", "setting": "[1]; full dose 200 mg, FAS N=485", "result": 268}, {"measurement": "Total number of subjects with diminutive adenomas", "setting": "[1]; full dose 200 mg, FAS N=485", "result": 180}, {"measurement": "Total number of subjects with non-polypoid lesions", "setting": "[1]; full dose 200 mg, FAS N=485", "result": 213}, {"measurement": "ADR in patients with number of excisions 0-1", "setting": "[1]; full dose 200 mg, PP", "result": 25.32, "unit": "%"}, {"measurement": "ADR in patients with number of excisions ≤3", "setting": "[1]; full dose 200 mg, PP", "result": 68.24, "unit": "%"}, {"measurement": "Subjects with excision, %", "setting": "[1]; full dose 200 mg, Per Protocol N=455", "result": "(75.38) %"}, {"measurement": "Subjects with at least one histologically proven Adenoma or Carcinoma (ADR), %", "setting": "[1]; low dose 100 mg (MB tablets of Example 6), FAS N=241", "result": 51.45, "unit": "%"}, {"measurement": "Subjects with excision, %", "setting": "[1]; low dose 100 mg, FAS N=241", "result": 69.71, "unit": "%"}, {"measurement": "False Positive Rate: subjects with excisions and without any histologically proven Adenoma or Carcinoma, %", "setting": "[1]; low dose 100 mg, FAS", "result": 26.19, "unit": "%"}, {"measurement": "Subjects with at least one histologically proven Adenoma or Carcinoma (ADR), %", "setting": "[1]; [4]", "result": 53.78, "unit": "%"}, {"measurement": "Subjects with excision, %", "setting": "[1]; [4]", "result": 72.44, "unit": "%"}, {"measurement": "False Positive Rate: subjects with excisions and without any histologically proven Adenoma or Carcinoma, %", "setting": "[1]; low dose 100 mg, Per Protocol", "result": 25.77, "unit": "%"}, {"measurement": "Absolute difference in ADR between methylene blue full dose and placebo", "setting": "[1]; [5]", "result": 7.24, "unit": "%"}, {"measurement": "Percent increase in ADR for methylene full dose vs placebo", "setting": "[1]; [5]", "result": 38.2, "unit": "%"}, {"measurement": "Absolute difference in ADR between methylene blue full dose and placebo", "setting": "[1]; [6]", "result": 9.15, "unit": "%"}, {"measurement": "Percent increase in ADR for methylene full dose vs placebo", "setting": "[1]; [6]", "result": 45.4, "unit": "%"}, {"measurement": "Absolute difference in ADR between methylene blue full dose and placebo", "setting": "[1]; [7]", "result": 9.40, "unit": "%"}, {"measurement": "Percent increase in ADR for methylene full dose vs placebo", "setting": "[1]; [7]", "result": 26.2, "unit": "%"}, {"measurement": "Absolute difference in ADR between methylene blue full dose and placebo", "setting": "[1]; [8]", "result": 11.47, "unit": "%"}, {"measurement": "Percent increase in ADR for methylene full dose vs placebo", "setting": "[1]; [8]", "result": 40.8, "unit": "%"}, {"measurement": "substrate of the membrane transport protein P-gp", "setting": "P-gp [2]", "result": "possible substrate"}, {"measurement": "inhibition of P-gp", "setting": "P-gp [3]", "result": "weak inhibitor"}, {"measurement": "induction of CYP isozyme 1A2", "setting": "CYP 1A2", "result": "induces"}, {"measurement": "induction of CYP isozyme 2B6", "setting": "CYP 2B6", "result": "induces"}]}]}
